Experimental data published in patent US20200239530A1, “COMPOUNDS AND METHODS OF MODULATING PROTEIN DEGRADATION” (Vividion Therapeutics, Inc., priority 2017, published 2020).

Experiments:
Assay in all cases: Cysteine liganding, probe competition
Assay type in all cases: binding
[1] = molecular target: T1, GFM1 Elongation factor G, mitochondrial (Homo sapiens, UniProt Q96RP9); settings: GFM1 Res# 146, uniprot Q96RP9
T1 construct: Cells were resuspended in cold PBS on ice and sonicated with a probe sonicator to achieve lysis; endogenous in cells
Procedure, shortened: (§1)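 Lysates from probe-sonicated cells in PBS (5 mg/ml proteome) were exposed to compound for 1 hr at 25° C, then labelled with desthiobiotin iodoacetamide probe (10 mM stock) for 1 hr at 25° C. Probe-tagged peptides were streptavidin-enriched after trypsin digestion.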

[2] = molecular target: T2, HNRPLL Heterogeneous nuclear ribonucleoprotein L-like (Homo sapiens, UniProt Q8WVV9); settings: HNRPLL Res# 464, uniprot Q8WVV9
T2 construct: Cells were resuspended in cold PBS on ice and sonicated with a probe sonicator to achieve lysis; endogenous in cells
Procedure, shortened: as §1

[3] = molecular target: T3, L3MBTL3 Lethal(3)malignant brain tumor-like protein 3 (Homo sapiens, UniProt Q96JM7); settings: L3MBTL3 Res# 233, uniprot Q96JM7
T3 construct: Cells were resuspended in cold PBS on ice and sonicated with a probe sonicator to achieve lysis; endogenous in cells
Procedure, shortened: as §1

[4] = molecular target: T4, MYCBP2 E3 ubiquitin-protein ligase MYCBP2 (Homo sapiens, UniProt O75592)
T4 construct: Cells were resuspended in cold PBS on ice and sonicated with a probe sonicator to achieve lysis; endogenous in cells
Procedure, shortened: as §1

[5] = molecular target: T5, NT5DC2 5-nucleotidase domain-containing protein 2 (Homo sapiens, UniProt Q9H857)
T5 construct: Cells were resuspended in cold PBS on ice and sonicated with a probe sonicator to achieve lysis; endogenous in cells
Procedure, shortened: as §1

[6] = molecular target: T6, RNF213 E3 ubiquitin-protein ligase RNF213 (Homo sapiens, UniProt Q63HN8)
T6 construct: Cells were resuspended in cold PBS on ice and sonicated with a probe sonicator to achieve lysis; endogenous in cells
Procedure, shortened: as §1

[7] = molecular target: T7, SPAG5 Sperm-associated antigen 5 (Homo sapiens, UniProt Q96R06); settings: SPAG5 Res# 382, uniprot Q96R06
T7 construct: Cells were resuspended in cold PBS on ice and sonicated with a probe sonicator to achieve lysis; endogenous in cells
Procedure, shortened: as §1

[8] = molecular target: T8, SRRM2 Serine/arginine repetitive matrix protein 2 (Homo sapiens, UniProt Q9UQ35)
T8 construct: Cells were resuspended in cold PBS on ice and sonicated with a probe sonicator to achieve lysis; endogenous in cells
Procedure, shortened: as §1

[9] = molecular target: T9, VDAC3 Voltage-dependent anion-selective channel protein (Homo sapiens, UniProt Q9Y277); settings: VDAC3 Res# 229, uniprot Q9Y277
T9 construct: Cells were resuspended in cold PBS on ice and sonicated with a probe sonicator to achieve lysis; endogenous in cells
Procedure, shortened: as §1

[10] = molecular target: T10, ZNF638 Zinc finger protein 638 (Homo sapiens, UniProt Q14966)
T10 construct: Cells were resuspended in cold PBS on ice and sonicated with a probe sonicator to achieve lysis; endogenous in cells
Procedure, shortened: as §1

[11] = molecular target: T11, B-cell lymphoma 6 protein (BCL6) (Homo sapiens, UniProt P41182)
T11 construct: Cells were resuspended in cold PBS on ice and sonicated with a probe sonicator to achieve lysis; endogenous in cells
Procedure, shortened: as §1

[12] = molecular target: T12, TNF receptor-associated factor 6 (TRAF6) (Homo sapiens, UniProt Q9Y4K3); settings: read-out: percent_inhibition
T12 construct: Cells were resuspended in cold PBS on ice and sonicated with a probe sonicator to achieve lysis; endogenous in cells
Procedure, shortened: as §1

[13] = molecular target: T13, INTS1 Integrator complex subunit 1 (Homo sapiens, UniProt Q8N201)
T13 construct: Cells were resuspended in cold PBS on ice and sonicated with a probe sonicator to achieve lysis; endogenous in cells
Procedure, shortened: as §1

[14] = molecular target: T14, MAP1B Microtubule-associated protein 1B (Homo sapiens, UniProt P46821)
T14 construct: Cells were resuspended in cold PBS on ice and sonicated with a probe sonicator to achieve lysis; endogenous in cells
Procedure, shortened: as §1

T6 sequence (Q63HN8 whole entry): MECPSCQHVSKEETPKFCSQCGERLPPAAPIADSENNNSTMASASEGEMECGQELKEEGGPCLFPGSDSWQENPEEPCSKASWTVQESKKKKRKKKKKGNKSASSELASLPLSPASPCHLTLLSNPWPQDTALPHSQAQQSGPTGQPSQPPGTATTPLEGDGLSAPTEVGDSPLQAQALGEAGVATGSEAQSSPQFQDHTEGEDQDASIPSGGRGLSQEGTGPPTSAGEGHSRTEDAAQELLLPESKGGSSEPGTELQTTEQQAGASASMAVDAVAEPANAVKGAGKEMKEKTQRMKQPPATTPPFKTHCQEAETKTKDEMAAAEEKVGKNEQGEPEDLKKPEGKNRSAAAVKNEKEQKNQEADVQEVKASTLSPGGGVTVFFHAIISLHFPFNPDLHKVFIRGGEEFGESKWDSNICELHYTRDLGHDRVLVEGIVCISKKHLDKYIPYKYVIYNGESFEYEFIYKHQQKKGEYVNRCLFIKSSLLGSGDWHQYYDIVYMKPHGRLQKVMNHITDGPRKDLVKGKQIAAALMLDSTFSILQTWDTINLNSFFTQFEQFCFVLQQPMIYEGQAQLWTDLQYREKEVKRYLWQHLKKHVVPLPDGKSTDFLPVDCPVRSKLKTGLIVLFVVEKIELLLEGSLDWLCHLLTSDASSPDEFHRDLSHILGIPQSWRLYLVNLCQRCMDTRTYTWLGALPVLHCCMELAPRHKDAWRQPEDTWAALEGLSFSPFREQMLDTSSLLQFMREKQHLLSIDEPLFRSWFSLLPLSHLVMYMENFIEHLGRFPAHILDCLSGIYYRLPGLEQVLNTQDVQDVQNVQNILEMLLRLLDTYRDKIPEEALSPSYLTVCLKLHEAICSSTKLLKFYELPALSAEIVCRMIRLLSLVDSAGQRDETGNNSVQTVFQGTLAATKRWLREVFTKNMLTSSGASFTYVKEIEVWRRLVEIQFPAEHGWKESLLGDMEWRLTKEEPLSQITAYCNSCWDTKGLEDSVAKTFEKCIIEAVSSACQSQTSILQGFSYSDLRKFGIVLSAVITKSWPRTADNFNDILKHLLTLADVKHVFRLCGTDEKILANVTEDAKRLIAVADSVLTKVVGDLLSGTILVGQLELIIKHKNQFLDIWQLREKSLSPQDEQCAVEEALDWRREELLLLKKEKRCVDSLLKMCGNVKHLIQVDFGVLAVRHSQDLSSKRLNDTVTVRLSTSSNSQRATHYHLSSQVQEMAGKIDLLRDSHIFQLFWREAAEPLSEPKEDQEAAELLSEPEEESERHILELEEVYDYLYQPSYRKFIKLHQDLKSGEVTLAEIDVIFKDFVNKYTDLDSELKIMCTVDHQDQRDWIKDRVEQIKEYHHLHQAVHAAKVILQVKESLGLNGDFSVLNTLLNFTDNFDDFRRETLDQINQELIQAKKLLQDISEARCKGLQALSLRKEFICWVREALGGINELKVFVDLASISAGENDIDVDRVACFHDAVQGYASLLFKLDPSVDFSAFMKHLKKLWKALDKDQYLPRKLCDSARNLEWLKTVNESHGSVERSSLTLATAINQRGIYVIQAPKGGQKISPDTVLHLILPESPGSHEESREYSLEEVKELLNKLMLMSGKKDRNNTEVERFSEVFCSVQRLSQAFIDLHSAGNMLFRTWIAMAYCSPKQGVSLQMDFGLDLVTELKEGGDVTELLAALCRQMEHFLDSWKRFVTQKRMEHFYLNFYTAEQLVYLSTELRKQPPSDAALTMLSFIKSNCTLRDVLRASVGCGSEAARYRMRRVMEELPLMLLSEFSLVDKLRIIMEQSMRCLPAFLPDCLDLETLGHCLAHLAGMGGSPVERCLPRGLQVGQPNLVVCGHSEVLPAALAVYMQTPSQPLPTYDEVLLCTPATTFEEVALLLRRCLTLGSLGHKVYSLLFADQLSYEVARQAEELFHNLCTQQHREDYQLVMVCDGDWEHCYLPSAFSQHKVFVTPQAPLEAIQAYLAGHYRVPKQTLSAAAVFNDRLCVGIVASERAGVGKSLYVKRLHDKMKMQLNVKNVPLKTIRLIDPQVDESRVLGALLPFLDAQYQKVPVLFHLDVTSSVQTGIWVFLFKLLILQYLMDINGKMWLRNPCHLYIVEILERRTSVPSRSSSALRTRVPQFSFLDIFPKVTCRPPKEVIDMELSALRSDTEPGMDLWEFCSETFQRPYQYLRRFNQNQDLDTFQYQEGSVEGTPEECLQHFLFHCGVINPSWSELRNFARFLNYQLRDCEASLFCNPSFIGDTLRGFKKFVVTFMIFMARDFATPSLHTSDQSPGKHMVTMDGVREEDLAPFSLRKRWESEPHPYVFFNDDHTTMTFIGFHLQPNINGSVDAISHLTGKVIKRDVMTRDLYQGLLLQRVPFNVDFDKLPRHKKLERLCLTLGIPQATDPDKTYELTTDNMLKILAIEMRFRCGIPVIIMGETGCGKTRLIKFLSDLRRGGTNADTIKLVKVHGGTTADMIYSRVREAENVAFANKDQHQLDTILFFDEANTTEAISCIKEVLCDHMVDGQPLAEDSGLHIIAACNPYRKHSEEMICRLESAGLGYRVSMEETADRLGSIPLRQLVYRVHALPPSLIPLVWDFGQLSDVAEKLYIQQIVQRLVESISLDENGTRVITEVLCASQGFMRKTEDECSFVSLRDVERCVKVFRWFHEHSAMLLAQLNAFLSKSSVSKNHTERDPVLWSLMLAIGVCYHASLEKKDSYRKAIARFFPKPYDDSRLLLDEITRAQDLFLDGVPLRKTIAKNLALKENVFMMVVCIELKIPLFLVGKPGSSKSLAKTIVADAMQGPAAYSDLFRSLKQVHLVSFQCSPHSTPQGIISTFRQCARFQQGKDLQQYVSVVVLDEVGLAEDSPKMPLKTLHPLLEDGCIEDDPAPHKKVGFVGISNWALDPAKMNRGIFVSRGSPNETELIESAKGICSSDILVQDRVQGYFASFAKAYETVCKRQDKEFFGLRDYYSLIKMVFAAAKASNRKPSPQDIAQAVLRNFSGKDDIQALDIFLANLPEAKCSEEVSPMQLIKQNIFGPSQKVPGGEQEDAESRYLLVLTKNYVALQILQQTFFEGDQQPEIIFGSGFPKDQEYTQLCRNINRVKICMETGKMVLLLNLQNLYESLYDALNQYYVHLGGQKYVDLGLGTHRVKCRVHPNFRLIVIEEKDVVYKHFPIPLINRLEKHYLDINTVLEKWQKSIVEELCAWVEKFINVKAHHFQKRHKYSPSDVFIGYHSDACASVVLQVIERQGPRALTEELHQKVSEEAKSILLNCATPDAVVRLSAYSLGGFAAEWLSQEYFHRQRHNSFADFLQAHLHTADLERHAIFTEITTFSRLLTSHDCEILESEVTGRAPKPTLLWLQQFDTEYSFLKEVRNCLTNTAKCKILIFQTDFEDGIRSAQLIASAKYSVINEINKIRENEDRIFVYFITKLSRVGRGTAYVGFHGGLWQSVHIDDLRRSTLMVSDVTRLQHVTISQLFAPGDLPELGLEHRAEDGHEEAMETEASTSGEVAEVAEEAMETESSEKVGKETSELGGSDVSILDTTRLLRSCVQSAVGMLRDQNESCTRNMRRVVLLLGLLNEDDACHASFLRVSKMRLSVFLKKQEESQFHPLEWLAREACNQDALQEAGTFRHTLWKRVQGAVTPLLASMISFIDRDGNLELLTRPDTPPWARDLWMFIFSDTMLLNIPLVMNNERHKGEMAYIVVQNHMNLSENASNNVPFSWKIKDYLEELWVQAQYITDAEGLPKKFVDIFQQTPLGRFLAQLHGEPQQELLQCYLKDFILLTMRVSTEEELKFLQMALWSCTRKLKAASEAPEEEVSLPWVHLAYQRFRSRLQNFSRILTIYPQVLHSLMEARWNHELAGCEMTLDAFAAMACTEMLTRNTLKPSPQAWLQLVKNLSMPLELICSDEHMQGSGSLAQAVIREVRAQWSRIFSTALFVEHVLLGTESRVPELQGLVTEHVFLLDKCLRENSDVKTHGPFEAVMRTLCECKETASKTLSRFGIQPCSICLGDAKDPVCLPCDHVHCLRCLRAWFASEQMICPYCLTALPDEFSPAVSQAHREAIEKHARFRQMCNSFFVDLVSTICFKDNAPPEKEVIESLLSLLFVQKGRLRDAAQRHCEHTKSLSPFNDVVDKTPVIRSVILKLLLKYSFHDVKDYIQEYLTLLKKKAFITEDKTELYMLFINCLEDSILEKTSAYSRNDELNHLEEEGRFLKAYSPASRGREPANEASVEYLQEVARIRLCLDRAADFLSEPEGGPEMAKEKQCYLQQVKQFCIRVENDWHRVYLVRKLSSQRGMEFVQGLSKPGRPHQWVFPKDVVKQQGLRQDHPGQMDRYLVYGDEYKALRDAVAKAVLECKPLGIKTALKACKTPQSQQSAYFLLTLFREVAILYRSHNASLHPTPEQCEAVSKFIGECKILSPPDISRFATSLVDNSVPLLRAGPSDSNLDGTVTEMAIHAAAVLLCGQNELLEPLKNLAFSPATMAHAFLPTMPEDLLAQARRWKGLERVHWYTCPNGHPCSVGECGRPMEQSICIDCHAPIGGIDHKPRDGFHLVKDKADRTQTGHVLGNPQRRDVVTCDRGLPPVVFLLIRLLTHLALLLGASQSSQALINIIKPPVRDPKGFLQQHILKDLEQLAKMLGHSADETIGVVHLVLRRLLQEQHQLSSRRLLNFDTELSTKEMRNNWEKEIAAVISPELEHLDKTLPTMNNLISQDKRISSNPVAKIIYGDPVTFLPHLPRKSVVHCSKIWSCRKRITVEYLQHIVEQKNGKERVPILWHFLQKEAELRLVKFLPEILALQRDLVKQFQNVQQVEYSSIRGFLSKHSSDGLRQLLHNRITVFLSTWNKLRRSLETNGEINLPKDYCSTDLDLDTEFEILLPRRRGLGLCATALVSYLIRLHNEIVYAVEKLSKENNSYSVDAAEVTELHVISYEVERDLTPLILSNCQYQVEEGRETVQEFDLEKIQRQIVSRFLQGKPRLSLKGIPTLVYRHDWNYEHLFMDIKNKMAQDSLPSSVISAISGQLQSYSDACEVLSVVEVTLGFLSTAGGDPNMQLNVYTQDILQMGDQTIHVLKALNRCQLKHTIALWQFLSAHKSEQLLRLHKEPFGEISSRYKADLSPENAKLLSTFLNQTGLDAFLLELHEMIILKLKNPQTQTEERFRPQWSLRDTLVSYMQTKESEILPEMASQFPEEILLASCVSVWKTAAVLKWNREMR

COc1ccc2c(c1)CCCN2C(=O)CCl [KB02]
Liganded [1]: YES
Liganded [2]: YES
Liganded [3]: YES
Liganded ([4]; MYCBP2 Res# 1131, uniprot O75592): YES
Liganded ([4]; MYCBP2 Res# 3152, uniprot O75592): YES
Liganded ([5]; NT5DC2 Res# 504, uniprot Q9H857): YES
Liganded ([5]; NT5DC2 Res# 507, uniprot Q9H857): YES
Liganded ([6]; RNF213 Res# 1510, uniprot Q63HN8): YES
Liganded ([6]; RNF213 Res# 4258, uniprot Q63HN8): YES
Liganded ([6]; RNF213 Res# 4407, uniprot Q63HN8): YES
Liganded [7]: YES
Liganded ([8]; SRRM2 Res# 1029, uniprot Q9UQ35): YES
Liganded ([8]; SRRM2 Res# 1036, uniprot Q9UQ35): YES
Liganded [9]: YES
Liganded ([10]; ZNF638 Res# 1023, uniprot Q14966): YES
Liganded ([10]; ZNF638 Res# 1026, uniprot Q14966): YES

C=CC(=O)N(c1ccccc1)c1ccc(Br)cc1 [KB05]
KB05_100 uM_percent_inhibition ([11]; 100 uM): 7%
inhibition at 100 µM ([11]; read-out: KB05_100 uM_percent_inhibition): 9%
inhibition at 500 µM [12]: 31%

O=C(CCl)Nc1cc(C(F)(F)F)cc(C(F)(F)F)c1 [KBO3]
Liganded ([13]; INTS1 Res# 1534, uniprot Q8N201): YES
100 Max ([13]; uniprot Q8N201): 51.25
100 ave ([13]; uniprot Q8N201): 36.495
500 Max ([13]; uniprot Q8N201): 77.65
500 ave ([13]; uniprot Q8N201): 70.05
Liganded ([14]; MAP1B Res# 382, uniprot P46821): YES
100 ave ([14]; uniprot P46821): 37.5
500 ave ([14]; uniprot P46821): 75.17
500 Max ([14]; uniprot P46821, in % (unit assumed)): 75.17
100 Max ([14]; uniprot P46821, unit assumed): 37.5%
